Reference: patent US4524147A, “Uracil derivatives, process for preparing same, and pharmaceutical compositions comprising same” (Mitsui Toatsu Chemicals, Incorporated, priority 1981, dated 1985)
Counter-ions that a name gives are not always drawn.

Experiments:
delayed hypersensitivity = assay: Augmentation test of delayed hypersensitivity (picryl chloride, mouse ear thickness); format: in vivo, mice (ICR strain, male); conditions: 50 mg/kg oral, simultaneously with sensitization; 24 hours after challenge; average of 16 measurements of 8 animals; * P<0.05 vs control
Source text: These facts are more fully explained with reference to the following evaluation tests. A variety of experimental systems are being commonly used to test immunomodulatory activity in animals. Of such tests, the most typical one is an augmentation test of delayed hypersensitivity as shown below. […] L., and Ptak, W. "Contact and delayed hypersensitivity in the mouse I. Active sensitization and passive transfer," Immunology, 15, 405-416(1968)). In the following Evaluation Test 1, this experimental system was used to carry out an augmentation test of delayed hypersensitivity. [Augmentation test of delayed hypersensitivity] Male mice of the ICR strain, weighing approximately 30 g, were used in groups of eight. These animals were sensitized by shaving the hair on the abdomen and applying thereto a 3% solution of picryl chloride in a 4:1 mixture of olive oil and acetone. Simultaneously with this sensitization, each of two compounds of the present invention was dissolved or suspended in physiological saline containing 0.2% carboxymethyl cellulose and administered orally to the animals in a dose of 50 mg per kg of body weight. A control group was treated solely with physiological saline containing 0.2% carboxymethyl cellulose. Seven days after sensitization, delayed hypersensitivity was challenged by wrapping the tips of a forceps with pieces of felt, impregnating the felt with olive oil containing 1% picryl chloride, and pinching both ears of each animal. The thicknesses of the ears were measured before and 24 hours after the challenge, and the calculated percent increase of ear thickness (the average of 16 measurements made of the ears of 8 animals) is shown in Table 1. For purposes of comparison, the results of an experiment with Lavamisole hydrochloride are also given. The test results thus obtained were subjected to statistical analysis using the F.t test. The values marked with an asterisk (*) indicate that, when they were compared with the value of the control group, the differences were significant at P<0.05.

adjuvant arthritis = assay: Adjuvant arthritis test (hind paw swelling); format: in vivo, rats (SD strain, male); conditions: 5 mg/kg subcutaneous, nine times before and after injection of adjuvant; left hind paw volume; * P<0.05 vs control
Experimental: The adjuvant arthritis induced in rats by injection of a tubercle bacillus adjuvant is frequently used as an experimental model for rheumatoid arthritis in man.
Although the mechanism by which this phenomenon occurs is not completely elucidated, cellular immunity is known to play an important role. Employing this well-known adjuvant arthritis test, the same compounds of the present invention were further examined for immunomodulatory activity.
[Adjuvant arthritis test]
An adjuvant was prepared by suspending 0.4 mg of killed and dried cells of the human type tubercle bacillus (Mycobacterium tuberclosis) in 0.1 ml of liquid paraffin, and inoculated intradermally into the right hind paw of 8-weeks-old male rats of the SD strain. Each of the two compounds of the present invention was subcutaneously administered nine times before and after injection of the adjuvant. These compounds were dissolved or suspended in physiological saline containing 0.2% carboxymethyl cellulose and administered in an amount of 5 mg per kg of body weight. The volume of the left hind paw of each animal was daily measured from the day of inoculation of the adjuvant to the end of the test, and the calculated percent inhibition of swelling is shown in Table 2. For purposes of comparison, the results of an experiment with Levamisole hydrochloride are also given. The test results thus obtained were subjected to statistical analysis using the F.t test. The values marked with an asterisk (*) indicate that, when they were compared with the value of a control group treated solely with physiological saline containing 0.2% carboxymethyl cellulose, the differences were significant at P<0.05.

[1] = Test for acute oral toxicity; set-up: species or system mice (ddY strain; conditions: mouse, in vivo, 5 male ddY mice per group, observed for 7 days, estimated
Experimental: The toxicity of the active ingredients of some typical pharmaceutical composition of the present invention was examined in the following Evaluation Test 3.
[Test for acute oral toxicity]
Each of the compounds used in Evaluation Tests 1 and 2 was dissolved or suspended in physiological saline and administered orally to a group of 5 male mice of the ddY strain. The LD50 value of the compound was estimated by observing these animals for 7 days after administration.

For `c1ccc([C@H]2CN3CCSC3=N2)cc1` [Levamisole hydrochloride, reference compound], the “Percent increase of ear thickness” value (delayed hypersensitivity) was 31.2%, the “Percent inhibition of swelling as compared with control group (average of 16-20 days)” value (from here on “Percent inhibition of swelling”) (adjuvant arthritis) was 19.8% and the LD50 at 168 h [1] was 200 to 300 mg/kg.

In the case of `O=C(C(=O)n1ccc(=O)[nH]c1=O)n1ccc(=O)[nH]c1=O` [drawing 4], the “Percent increase of ear thickness” value (delayed hypersensitivity) is reported as 33.9%.

In the case of `Cc1cn(C(=O)C(=O)n2cc(C)c(=O)[nH]c2=O)c(=O)[nH]c1=O` [drawing 5], the “Percent increase of ear thickness” value (delayed hypersensitivity) is reported as 28.6%.

With `O=C(C(=O)n1ccc(=O)[nH]c1=O)n1ccc(=O)[nH]c1=O` [drawing 6] the “Percent inhibition of swelling” value (adjuvant arthritis) was 41.4%.

For `Cc1cn(C(=O)C(=O)n2cc(C)c(=O)[nH]c2=O)c(=O)[nH]c1=O` [drawing 7], the “Percent inhibition of swelling” value (adjuvant arthritis) was 29.9%.
